Assay results reported in patent US12180187B2, “1-phenyl-5-azinylpyrazolyl-3-oxyalkyl acids and their use for controlling unwanted plant growth” (BAYER AKTIENGESELLSCHAFT, priority 2019, dated 2024).

Key:
[1] = system: AMARE; assay: Pre-emergence action against AMARE, 1280 g/ha; format: in vivo, Amaranthus retroflexus; conditions: scored visually after about 3 weeks vs untreated controls (100% = plants have died)
Summary of the method: (§1)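 Each pot was doubly sown in sandy loam and covered, then its soil surface was treated with compound suspension or emulsion containing 0.5% additive at 600 L/ha water. Plants grew in a greenhouse; effect was rated visually as percentages versus controls after about 3 weeks.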

[2] = system: MATIN; assay: Post-emergence action against MATIN, 1.28 kg/ha; format: in vivo, Tripleurospermum inodorum (Matricaria inodora); conditions: dosage 1280 g/ha, visual rating about 3 weeks after treatment vs untreated controls (100% = plants died)
Summary of the method: (§2)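 Foliar application at the one-leaf stage: compound as WP or EC in water with 0.5% additive, sprayed at 600 L/ha. Plants are kept about 3 weeks in the greenhouse, then % herbicidal action is estimated visually (100% = death).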

[3] = system: KCHSC; assay: Pre-emergence action against KCHSC, 1280 g/ha; format: in vivo, Bassia scoparia; conditions: scored visually after about 3 weeks vs untreated controls (100% = plants have died)
Description: 1. Pre-Emergence Herbicidal Effect and Crop Plant Compatibility a) Seeds of mono- and dicotyledonous weed plants are placed in plastic pots in sandy loam soil (doubly sown with one species each of mono- or dicotyledonous weed plants per pot) and covered with soil. The compounds of the invention, formulated in the form of wettable powders (WP) or as emulsion concentrates (EC), are then applied onto the surface of the covering soil as aqueous suspension or emulsion with addition of 0.5% additive at a water application rate equivalent to 600 litres per hectare. After the treatment, the pots are placed in a greenhouse and kept under good growth conditions for the trial plants. After about 3 weeks, the effect of the preparations is scored visually in comparison with untreated controls as percentages. For example, 100% activity=the plants have died, 0% activity=like control plants. 1. Pre-Emergence Effectiveness Tables 1 to 12 below show the effects of selected compounds of the general formula (I) according to Tables 1 and 2 on various harmful plants and at an application rate corresponding to 1280 g/ha, which were obtained by the experimental procedure mentioned above.

[4] = system: SETVI; assay: Pre-emergence action against SETVI, 1280 g/ha; format: in vivo, Setaria viridis; conditions: visual scoring after about 3 weeks vs untreated controls, 100% = plants have died, 0% = like control plants
Summary of the method: as §1

[5] = system: POAAN; assay: Pre-emergence action against POAAN, 1280 g/ha; format: in vivo, Poa annua; conditions: visual scoring after about 3 weeks vs untreated controls, 100% = plants have died, 0% = like control plants
Summary of the method: as §1

[6] = system: MATIN; assay: Pre-emergence action against MATIN, 1280 g/ha; format: in vivo, Tripleurospermum inodorum (Matricaria inodora); conditions: scored visually after about 3 weeks vs untreated controls (100% = plants have died)
Summary of the method: as §1

[7] = system: POAAN; assay: Post-emergence action against POAAN, 1.28 kg/ha; format: in vivo, Poa annua; conditions: dosage 1280 g/ha, visual rating about 3 weeks after treatment vs untreated controls
Summary of the method: as §2

[8] = system: VERPE; assay: Post-emergence action against VERPE, 1.28 kg/ha; format: in vivo, Veronica persica; conditions: dosage 1280 g/ha, visual rating about 3 weeks after treatment vs untreated controls (100% = plants died)
Summary of the method: as §2

[9] = system: ALOMY; assay: Post-emergence action against ALOMY, 1.28 kg/ha; format: in vivo, Alopecurus myosuroides; conditions: dosage 1280 g/ha, visual rating about 3 weeks after treatment vs untreated controls
Summary of the method: as §2

[10] = system: STEME; assay: Pre-emergence action against STEME, 1280 g/ha; format: in vivo, Stellaria media; conditions: scored visually after about 3 weeks vs untreated controls (100% = plants have died)
Summary of the method: as §1

[11] = system: DIGSA; assay: Pre-emergence action against DIGSA, 1280 g/ha; format: in vivo, Digitaria sanguinalis; conditions: visual scoring after about 3 weeks vs untreated controls, 100% = plants have died, 0% = like control plants
Summary of the method: as §1

[12] = system: KCHSC; assay: Post-emergence action against KCHSC, 1.28 kg/ha; format: in vivo, Bassia scoparia; conditions: dosage 1280 g/ha, visual rating about 3 weeks after treatment vs untreated controls (100% = plants died)
Description: (§3) • a) Seeds of mono- and dicotyledonous weed plants are placed in plastic pots in sandy loam soil (twin sowing with one species each of mono- or dicotyledonous weed plants per pot), covered with soil and cultivated in a greenhouse under controlled growth conditions. 2 to 3 weeks after sowing, the test plants are treated at the one-leaf stage. The compounds of the invention, formulated in the form of wettable powders (WP) or as emulsion concentrates (EC), are applied to the green parts of the plants as aqueous suspension or emulsion with addition of 0.5% additive at a water application rate equivalent to 600 litres per hectare. After the test plants have been kept in the greenhouse under optimum growth conditions for about 3 weeks, the activity of the preparations is rated visually in comparison to untreated controls. For example, 100% activity=the plants have died, 0% activity=like control plants. As shown by the results, compounds of the general formula (I) of the invention, in post-emergence treatment, have very good herbicidal efficacy (90% to 100% herbicidal action) against harmful plants such as Abutilon theophrasti, Digitaria sanguinalis, Echinochloa crus-galli, Matricaria inodora, Poa annua, at an application rate of 1.28 kg of active substance per hectare.

[13] = system: ECHCG; assay: Pre-emergence action against ECHCG, 1280 g/ha; format: in vivo, Echinochloa crus-galli; conditions: visual scoring after about 3 weeks vs untreated controls, 100% = plants have died, 0% = like control plants
Summary of the method: as §1

[14] = system: ECHCG; assay: Post-emergence action against ECHCG, 1.28 kg/ha; format: in vivo, Echinochloa crus-galli; conditions: dosage 1280 g/ha, visual rating about 3 weeks after treatment vs untreated controls
Summary of the method: as §2

[15] = system: DIGSA; assay: Post-emergence action against DIGSA, 1.28 kg/ha; format: in vivo, Digitaria sanguinalis; conditions: dosage 1280 g/ha, visual rating about 3 weeks after treatment vs untreated controls
Summary of the method: as §2

[16] = system: LOLRI; assay: Post-emergence action against LOLRI, 1.28 kg/ha; format: in vivo, Lolium rigidum; conditions: dosage 1280 g/ha, visual rating about 3 weeks after treatment vs untreated controls
Description: as §3

[17] = system: ALOMY; assay: Pre-emergence action against ALOMY, 1280 g/ha; format: in vivo, Alopecurus myosuroides; conditions: visual scoring after about 3 weeks vs untreated controls, 100% = plants have died, 0% = like control plants
Summary of the method: as §1

[18] = system: SETVI; assay: Post-emergence action against SETVI, 1.28 kg/ha; format: in vivo, Setaria viridis; conditions: dosage 1280 g/ha, visual rating about 3 weeks after treatment vs untreated controls
Summary of the method: as §2

[19] = system: VERPE; assay: Pre-emergence action against VERPE, 1280 g/ha; format: in vivo, Veronica persica; conditions: scored visually after about 3 weeks vs untreated controls (100% = plants have died)
Summary of the method: as §1

[20] = system: AMARE; assay: Post-emergence action against AMARE, 1.28 kg/ha; format: in vivo, Amaranthus retroflexus; conditions: dosage 1280 g/ha, visual rating about 3 weeks after treatment vs untreated controls (100% = plants died)
Summary of the method: as §2

[21] = system: ABUTH; assay: Post-emergence action against ABUTH, 1.28 kg/ha; format: in vivo, Abutilon theophrasti; conditions: dosage 1280 g/ha, visual rating about 3 weeks after treatment vs untreated controls (100% = plants died)
Summary of the method: as §2

[22] = system: LOLRI; assay: Pre-emergence action against LOLRI, 1280 g/ha; format: in vivo, Lolium rigidum; conditions: visual scoring after about 3 weeks vs untreated controls, 100% = plants have died, 0% = like control plants
Summary of the method: as §1

| Compound | Pre-emergence action against AMARE [1] | Post-emergence action against MATIN [2] | Pre-emergence action against SETVI [4] | Pre-emergence action against POAAN [5] | Pre-emergence action against MATIN [6] | Post-emergence action against POAAN [7] | Post-emergence action against VERPE [8] | Post-emergence action against ALOMY [9] | Pre-emergence action against STEME [10] | Pre-emergence action against DIGSA [11] | other results |
| --- | --- | --- | --- | --- | --- | --- | --- | --- | --- | --- | --- |
| O=C(COc1nn(-c2ccccc2F)c(-c2ccc(F)cn2)c1Br)NO [II-017] | 100% | 90% | 100% | 100% | 90% | 100% | 90% | 100% | 90% | 100% | Pre-emergence action against KCHSC [3]: 100% |
| CONC(=O)COc1nn(-c2ccccc2F)c(-c2ccc(F)nc2)c1Br [VII-068] | 100% | 90% | 100% | 100% | 100% | 100% | 100% | 100% | 100% | 100% | Post-emergence action against KCHSC [12]: 90%; Pre-emergence action against ECHCG [13]: 100%; Post-emergence action against ECHCG [14]: 100%; Post-emergence action against DIGSA [15]: 100%; Post-emergence action against LOLRI [16]: 100%; Pre-emergence action against ALOMY [17]: 100%; Post-emergence action against SETVI [18]: 90%; Pre-emergence action against VERPE [19]: 100%; Post-emergence action against AMARE [20]: 100%; Post-emergence action against ABUTH [21]: 100%; Pre-emergence action against LOLRI [22]: 100% |
